From paper PMC7751394, “Succinic acid inhibits the activity of cytochrome P450 (CYP450) enzymes” (Pharmaceutical Biology, 2020)
pIC50, pKi: −log10 of the molar value.

Assays:
CYP2C9 [1] = target: T1, CYP2C9 (Homo sapiens, UniProt P11712); assay: biochemical
Protocol: (§1) All incubations were performed in triplicate, and the mean values were utilized. The typical incubation systems contained 100 mM potassium phosphate buffer (pH 7.4), NADPH generating system (1 mM NADP^+, 10 mM glucose-6-phosphate, 1 U/mL of glucose-6-phosphate dehydrogenase, and 4 mM MgCl2), the appropriate concentration of HLMs, a corresponding probe substrate and hispidulin (or positive inhibitor for different probe reactions) in a final volume of 200 μL.
(§2) The concentration of succinic acid was 100 μM, and the positive inhibitor concentrations were as follows: 10 μM furafylline for CYP1A2, 1 μM ketoconazole for CYP3A4, 10 μM tranylcypromine for CYP2A6, 50 μM clomethiazole for CYP2E1, 10 μM quinidine for CYP2D6, 10 μM sulfaphenazole for CYP2C9, 50 μM tranylcypromine for CYP2C19, 5 μM montelukast for CYP2C8. Probe substrates, positive inhibitors (except for dextromethorphan and quinidine, which were dissolved in water), and succinic acid were dissolved in methanol, with a final concentration of 1% (v/v), and 1% neat methanol was added to the incubations without inhibitor. There was a 3 min preincubation period (at 37 °C) before the reaction was initiated by adding an NADPH-generating system. The reaction was terminated by adding a 100 μL acetonitrile (10% trichloroacetic acid for CYP2A6) internal standard mix, and the solution was placed on ice. The mixture was centrifuged at 12,000 rpm for 10 min, and an aliquot (50 μL) of supernatant was transferred for HPLC analysis. The instrument used in this study was Agilent 1260 series instrument with DAD and FLD detector, and the quantitative assay for the corresponding metabolites was performed as previously reported (Lang et al. [2017]; Zhang et al. [2017]).
(§3) Succinic acid (100 μM) was used to initially screen for its direct inhibitory effects towards different human CYP isoforms. […] Ki values were obtained by incubating various concentrations of different probe substrates (20–100 μM testosterone, 10–50 μM dextromethorphan, 5–20 μM diclofenac) in the presence of 0–50 μM succinic acid.
(§4) The enzyme kinetic parameters for the probe reaction were estimated from the best fit line, using least-squares linear regression of the inverse substrate concentration versus the inverse velocity (Lineweaver-Burk plots), and the mean values were used to calculate Vmax and Km. Inhibition data from the experiments that were conducted using multiple compound concentrations were represented by Dixon plots, and inhibition constant (Ki) values were calculated using non-linear regression according to the following equation: v=(VmaxS)/(Km(1+I/Ki)+S), where I is the concentration of the compound, Ki is the inhibition constant, S is the concentration of the substrate, and Km is the substrate concentration at half the maximum velocity (Vmax) of the reaction. The mechanism of the inhibition was inspected using the Lineweaver-Burk plots and the enzyme inhibition models. The data comparison was performed using Student’s t-test and performed using IBM SPSS statistics 20 (SPSS Inc.).

CYP2D6 [2] = target: T2, CYP2D6 (Homo sapiens, UniProt P10635); assay: biochemical
Protocol: as §1, §2, §3, §4

CYP3A4 [3] = target: T3, CYP3A4 (Homo sapiens, UniProt P08684); assay: biochemical
Protocol: as §1, §2, §3, §4

CYP3A4 [4] = target: T3, CYP3A4
Protocol: (§5) To determine whether succinic acid could inhibit the activity of CYP3A4, 2D6, and 2C9 in a time-dependent manner, succinic acid (20 μM) was pre-incubated with HLMs (1 mg/mL) in the presence of an NADPH-generating system for 30 min at 37 °C. After incubation, an aliquot (20 μL) was transferred to another incubation tube (final volume 200 μL) containing an NADPH-generating system and probe substrates whose final concentrations were approximate to Km. Then, further incubations were performed to measure the residual activity. After being incubated for 0, 5, 10, 15, and 30 min, the reactions were terminated by adding a 100 μL acetonitrile internal standard mix and then placed on ice; the corresponding metabolites were determined by HPLC.
To determine the KI and Kinact values for the inactivation of CYP3A4, the incubations were conducted using higher probe substrate concentrations (approximately 4-fold Km values) and various concentrations of succinic acid (0–50 μM) after different preincubation times (0–30 min), with a two-step incubation scheme, as described above.

CYP2C9 [5] = target: T1, CYP2C9; details: succinic acid 20 μM, 0–30 min
Protocol: as §5

CYP2D6 [6] = target: T2, CYP2D6; details: succinic acid 20 μM, 0–30 min
Protocol: as §5

T1 sequence (P11712 whole entry): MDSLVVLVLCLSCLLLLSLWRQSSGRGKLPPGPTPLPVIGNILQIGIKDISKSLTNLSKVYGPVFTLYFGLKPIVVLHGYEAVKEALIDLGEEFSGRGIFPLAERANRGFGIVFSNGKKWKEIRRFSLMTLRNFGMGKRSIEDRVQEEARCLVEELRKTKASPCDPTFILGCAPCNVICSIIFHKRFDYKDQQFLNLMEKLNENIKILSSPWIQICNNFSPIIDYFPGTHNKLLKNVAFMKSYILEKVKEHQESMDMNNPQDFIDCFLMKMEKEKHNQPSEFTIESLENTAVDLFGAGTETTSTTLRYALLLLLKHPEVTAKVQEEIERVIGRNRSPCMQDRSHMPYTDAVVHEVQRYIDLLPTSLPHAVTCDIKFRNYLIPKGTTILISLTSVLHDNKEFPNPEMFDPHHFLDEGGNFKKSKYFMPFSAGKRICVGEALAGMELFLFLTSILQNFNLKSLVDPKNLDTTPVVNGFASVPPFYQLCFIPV
T2 sequence (P10635 whole entry): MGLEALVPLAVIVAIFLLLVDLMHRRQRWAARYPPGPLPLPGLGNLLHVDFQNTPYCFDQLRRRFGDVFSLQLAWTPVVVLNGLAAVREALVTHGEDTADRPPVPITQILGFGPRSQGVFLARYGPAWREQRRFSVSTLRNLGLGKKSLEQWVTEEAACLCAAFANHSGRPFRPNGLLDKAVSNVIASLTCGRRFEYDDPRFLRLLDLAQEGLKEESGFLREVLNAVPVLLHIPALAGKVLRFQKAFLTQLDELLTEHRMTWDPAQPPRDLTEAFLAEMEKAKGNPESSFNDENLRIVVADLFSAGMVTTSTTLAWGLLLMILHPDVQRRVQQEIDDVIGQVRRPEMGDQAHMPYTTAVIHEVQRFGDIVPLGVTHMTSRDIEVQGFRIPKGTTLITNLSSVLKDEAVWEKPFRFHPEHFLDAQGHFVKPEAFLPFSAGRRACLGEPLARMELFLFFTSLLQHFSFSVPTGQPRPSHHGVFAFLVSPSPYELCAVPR
T3 sequence (P08684 whole entry): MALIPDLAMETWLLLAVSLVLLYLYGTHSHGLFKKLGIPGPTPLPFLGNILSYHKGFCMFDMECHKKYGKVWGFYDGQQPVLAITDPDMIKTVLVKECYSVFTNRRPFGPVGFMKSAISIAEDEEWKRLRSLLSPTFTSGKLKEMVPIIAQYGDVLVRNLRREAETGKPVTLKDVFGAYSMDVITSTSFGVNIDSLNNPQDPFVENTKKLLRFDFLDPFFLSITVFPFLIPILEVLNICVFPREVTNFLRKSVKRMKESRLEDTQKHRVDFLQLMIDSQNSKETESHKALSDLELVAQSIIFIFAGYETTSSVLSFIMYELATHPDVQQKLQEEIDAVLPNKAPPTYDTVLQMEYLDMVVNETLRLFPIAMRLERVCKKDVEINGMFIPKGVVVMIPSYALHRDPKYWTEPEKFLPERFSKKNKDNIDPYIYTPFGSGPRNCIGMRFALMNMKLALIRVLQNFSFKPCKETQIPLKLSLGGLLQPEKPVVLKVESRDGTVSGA

- pIC50 (CYP2C9 [1]): 4.71
- pKi (CYP2C9 [1]): 5.02
- inhibition model CYP2C9 (Lineweaver-Burk plots) (CYP2C9 [1]; pooled HLM): competitive
- pIC50 (CYP2D6 [2]): 4.84
- pKi (CYP2D6 [2]): 5.13
- inhibition model CYP2D6 (Lineweaver-Burk plots) (CYP2D6 [2]; microsomes): competitive
- pIC50 (CYP3A4 [3]): 4.89
- pKi (CYP3A4 [3]): 5.21
- inhibition model CYP3A4 (Lineweaver-Burk plots) (CYP3A4 [3]; pooled HLM): non-competitive
- time dependence of CYP3A4 inhibition (CYP3A4 [4]; succinic acid 20 μM, 0–30 min): time-dependent
- activity of CYP3A4 (decreased to) after incubating (CYP3A4 [4]; succinic acid 20 μM, 30 min incubation, HLMs with NADPH): 26.65%
- CYP3A4 inactivated by succinic acid (CYP3A4 [4]; suggested from Kinact): about 5.1%
- effect of incubation time on CYP2C9 activity (CYP2C9 [5]): not affected by the incubation time
- effect of incubation time on CYP2D6 activity (CYP2D6 [6]): not affected by the incubation time
SMILES: O=C(O)CCC(=O)O [succinic acid, Succinic acid]
